Where “and” joins values, the source holds several entries; their conditions need not be identical. Identical values can stand only once. Like-named read-outs stand apart in the source and are kept apart here.
Assays:
PSN1 = test: SRB colorimetric assay of cell growth and viability, PSN1; format: cell-based; settings: for LC50 / GI50: Homo sapiens; for LC50: PSN1, 72 h, read-out: LC50 PSN1; for GI50: PSN1, NCI algorithm; for GI50 / TGI PSN1: 72 hours treatment, SRB; for TGI PSN1: total cell growth inhibition
Text: (§1) Using the mean±SD of triplicate cultures, a dose-response curve was automatically generated using nonlinear regression analysis.

MDA-MB-231 [1] = test: SRB cytotoxicity assay, MDA-MB-231 (HER2-); format: cell-based; settings: Homo sapiens, MDA-MB-231, 72 h, read-out: IC50 MDA-MB-231
Protocol: (§2) For SK-BR-3, HCC-1954, MDA-MB-231 and MCF-7 cells, a colorimetric assay using Sulforhodamine B (SRB) was adapted for quantitative measurement of cell growth and cytotoxicity, as described in V. Vichai and K. Kirtikara. Sulforhodamine B colorimetric assay for cytotoxicity screening. Nature Protocols, 2006, 1, 1112-1116. Briefly, cells were seeded in 96-well microtiter plates and allowed to stand for 24 hours in drug-free medium before treatment with vehicle alone or with the tested substances for 72 hours.
(§3) Cell survival was expressed as percentage of control, untreated cell survival.

HT29 = test: SRB colorimetric assay of cell growth and viability, HT29; format: cell-based; settings: for CC50 / GI50: Homo sapiens; for CC50: HT-29, 72 h, read-out: LC50 HT29; for GI50: HT-29, NCI algorithm; for GI50 / TGI HT29: 72 hours treatment, SRB; for TGI HT29: total cell growth inhibition
Text: as §1

[2] = tested on: SK-BR-3, HCC-1954, MDA-MB-231 and MCF-7 cells; test: cells; format: cell-based; settings: Homo sapiens, 72 h
Protocol: as §2, §3

MDA-MB-231 [3] = test: SRB colorimetric assay of cell growth and viability, MDA-MB-231; format: cell-based; settings: for LC50 / GI50: Homo sapiens; for LC50: MDA-MB-231, 72 h, read-out: LC50 MDA-MB-231; for GI50: MDA-MB-231, NCI algorithm; for GI50 / TGI MDA-MB-231: 72 hours treatment, SRB; for TGI MDA-MB-231: total cell growth inhibition
Text: as §1

MCF-7 = test: SRB cytotoxicity assay, MCF-7 (HER2-); format: cell-based; settings: Homo sapiens, MCF7, 72 h, read-out: IC50 MCF-7
Protocol: as §2, §3

A549 = test: SRB colorimetric assay of cell growth and viability, A549; format: cell-based; settings: for CC50 / GI50: Homo sapiens; for CC50: A549, 72 h, read-out: LC50 A549; for GI50: A549, NCI algorithm; for GI50 / TGI A549: 72 hours treatment, SRB; for TGI A549: total cell growth inhibition
Text: as §1

SK-BR-3 = test: SRB cytotoxicity assay, SK-BR-3 (HER2+); format: cell-based; settings: Homo sapiens, SK-BR-3, 72 h, read-out: IC50 SK-BR-3
Protocol: as §2, §3

HCC-1954 = test: SRB cytotoxicity assay, HCC-1954 (HER2+); format: cell-based; settings: Homo sapiens, HCC1954, 72 h, read-out: IC50 HCC-1954
Protocol: as §2, §3

P388 lymphoma = settings: very low concentrations; cited from earlier work
B16 melanoma = settings: very low concentrations; cited from earlier work
Lewis lung carcinoma = settings: very low concentrations; cited from earlier work
[4] = read-out: geometric mean IC50 value across the whole cell panel

| SMILES | LC50 (PSN1) | GI50 (PSN1) | TGI PSN1 (PSN1) | CC50 (HT29) | GI50 (HT29) | TGI HT29 (HT29) | LC50 (MDA-MB-231 [3]) | GI50 (MDA-MB-231 [3]) | TGI MDA-MB-231 (MDA-MB-231 [3]) | CC50 (A549) | GI50 (A549) | TGI A549 (A549) | also measured |
| --- | --- | --- | --- | --- | --- | --- | --- | --- | --- | --- | --- | --- | --- |
| COc1ccc2[nH]c3c(c2c1)CCN[C@]31CS[C@@H]2c3c(OC(C)=O)c(C)c4c(c3[C@H](COC1=O)N1[C@@H]2[C@@H]2N[C@@H](Cc3cc(C)c(OC)c(O)c32)[C@@H]1O)OCO4 [Compound 1] | 2.34 nM | 1.22 nM | 1.69E−09 Molar | > 130 nM | 1.28 nM | 1.43E−09 Molar | 2.46 nM | 0.752 nM | 1.30E−09 Molar | 7.78 nM | 1.82 nM | 3.37E−09 Molar | IC50 (MDA-MB-231 [1]): 0.00068 µg/mL and 0.882 nM; IC50 ([2]; read-out: IC50 values in all the tumor cell lines (range)): 0.882 to 1.95 nM; IC50 [2, 4]: 1.32 nM; IC50 (MCF-7): 0.0012 µg/mL and 1.56 nM; IC50 (SK-BR-3): 0.00086 µg/mL and 1.12 nM; IC50 (HCC-1954): 0.0015 µg/mL and 1.95 nM |
| COc1ccc2[nH]c3c(c2c1)CCN[C@]31CS[C@@H]2c3c(OC(C)=O)c(C)c4c(c3[C@H](COC1=O)N1[C@@H]2[C@@H]2N[C@@H](Cc3cc(C)c(OC)c(O)c32)[C@@H]1C#N)OCO4 [Compound 2] | 5 nM | 2.05 nM | 3.08E−09 Molar | ≥ 1280 nM | 5.13 nM | 5.64E−09 Molar | 5.77 nM | 5 nM | 5.26E−09 Molar | > 1280 nM | 12.8 nM | 1.28E−08 Molar | IC50 (MDA-MB-231 [1]): 0.00069 µg/mL and 0.885 nM; IC50 [2, 4]: 1.53 nM; IC50 (MCF-7): 0.0017 µg/mL and 2.18 nM; IC50 (SK-BR-3): 0.00096 µg/mL and 1.23 nM; IC50 (HCC-1954): 0.0018 µg/mL and 2.31 nM |
| COc1ccc2[nH]c3c(c2c1)C[C@H](CO)N[C@]31CS[C@@H]2c3c(OC(C)=O)c(C)c4c(c3[C@H](COC1=O)N1[C@@H]2[C@@H]2N[C@@H](Cc3cc(C)c(OC)c(O)c32)[C@@H]1C#N)OCO4 [Compound 10-R] | > 123 nM | 0.753 nM | 1.48E−09 Molar | > 123 nM | 0.864 nM | 1.61E−09 Molar | 3.09 nM | 0.679 nM | 1.21E−09 Molar | > 123 nM | 4.32 nM | 1.20E−08 Molar |  |
| COc1ccc2[nH]c3c(c2c1)C[C@H](CO)N[C@]31CS[C@@H]2c3c(OC(C)=O)c(C)c4c(c3[C@H](COC1=O)N1[C@@H]2[C@@H]2N[C@@H](Cc3cc(C)c(OC)c(O)c32)[C@@H]1O)OCO4 [Compound 11-R] | 15 nM | 2.12 nM | 3.62E−09 Molar | > 125 nM | 2 nM | 3.62E−09 Molar | 7.24 nM | 1.62 nM | 2.87E−09 Molar | > 125 nM | 15 nM | 4.50E−08 Molar |  |
| COc1c(C)cc2c(c1O)[C@H]1N[C@@H](C2)[C@H](C#N)N2[C@H]1[C@@H]1SC[C@]3(NCCc4c3oc3ccccc43)C(=O)OC[C@H]2c2c3c(c(C)c(OC(C)=O)c21)OCO3 [Compound 14] | 22.6 nM | 9.72 nM | 1.33E−08 Molar | > 133 nM | 8.52 nM | 9.19E−09 Molar | 29.3 nM | 6.66 nM | 1.13E−08 Molar | > 133 nM | 8.79 nM | 1.73E−08 Molar |  |
| COc1c(C)cc2c(c1O)[C@H]1N[C@@H](C2)[C@H](O)N2[C@H]1[C@@H]1SC[C@]3(NCCc4c3oc3ccccc43)C(=O)OC[C@H]2c2c3c(c(C)c(OC(C)=O)c21)OCO3 [Compound 15] | 45.8 nM | 9.98 nM | 1.48E−08 Molar | > 135 nM | 8.76 nM | 9.57E−09 Molar | 24.3 nM | 7.14 nM | 1.16E−08 Molar | > 135 nM | 12.1 nM | 2.56E−08 Molar |  |
| COc1c(C)cc2c(c1O)[C@H]1N[C@@H](C2)[C@H](O)N2[C@H]1[C@@H]1SC[C@]3(NCCc4c3[nH]c3ccccc43)C(=O)OC[C@H]2c2c3c(c(C)c(OC(C)=O)c21)OCO3 [ET-722, Ecteinascidin 722] | 3.1 nM | 1.48 nM | 2.16E−09 Molar | > 135 nM | 1.35 nM | 1.48E−09 Molar | 2.56 nM | 0.891 nM | 1.48E−09 Molar | > 135 nM | 1.35 nM | 1.35E−09 Molar | protection of mice in vivo against P388 lymphoma (P388 lymphoma): protects mice in vivo at very low concentrations; protection of mice in vivo against B16 melanoma (B16 melanoma): protects mice in vivo at very low concentrations; protection of mice in vivo against Lewis lung carcinoma (Lewis lung carcinoma): protects mice in vivo at very low concentrations |
